Measurements published in US20260041667A1 (priority 2021, published 2026).

What was measured:
[1] = target: hERG potassium channel current (IKr) (Homo sapiens, UniProt Q12809); conditions: Phase 1, 30 μM in protein free perfusate, n=3
Description: This assay is employed as a screen to assess potential risks for QT interval prolongation.

Beagle dogs = assay: 14-day repeat-dose intranasal toxicity and toxicokinetic study in dogs (Study 62959); format: in vivo; conditions: dog
Experimental: Assessments of mortality, clinical signs, olfactory reflex, body weights, food consumption, ophthalmology, and electrocardiograms were performed.

Sprague Dawley rats = assay: 14-day repeat-dose intranasal toxicity and toxicokinetic study in rats (Study 700041); conditions: rat
[2] = intranasal 0.4 mg/kg/day, Day 1, Female
[3] = intranasal 0.4 mg/kg/day, Day 1, Male
[4] = intranasal 0.4 mg/kg/day, Day 14, Female
[5] = intranasal 0.4 mg/kg/day, Day 14, Male
[6] = intranasal 0.8 mg/kg/day, Day 1, Male
[7] = intranasal 0.8 mg/kg/day, Day 14, Male
[8] = intranasal 5 mg/kg/day, Day 1, Female
[9] = intranasal 5 mg/kg/day, Day 1, Male
[10] = intranasal 5 mg/kg/day, Day 14, Female
[11] = intranasal 5 mg/kg/day, Day 14, Male
[12] = intranasal 20 mg/kg/day, Day 1, Female
[13] = intranasal 20 mg/kg/day, Day 1, Male
[14] = intranasal 20 mg/kg/day, Day 14, Female
[15] = intranasal 20 mg/kg/day, Day 14, Male
[16] = intranasal 75 mg/kg/day, Day 1, Female
[17] = intranasal 75 mg/kg/day, Day 1, Male
[18] = intranasal 75 mg/kg/day, Day 14, Female
[19] = intranasal 75 mg/kg/day, Day 14, Male

hERG potassium channel current (IKr), sequence (Q12809 whole entry): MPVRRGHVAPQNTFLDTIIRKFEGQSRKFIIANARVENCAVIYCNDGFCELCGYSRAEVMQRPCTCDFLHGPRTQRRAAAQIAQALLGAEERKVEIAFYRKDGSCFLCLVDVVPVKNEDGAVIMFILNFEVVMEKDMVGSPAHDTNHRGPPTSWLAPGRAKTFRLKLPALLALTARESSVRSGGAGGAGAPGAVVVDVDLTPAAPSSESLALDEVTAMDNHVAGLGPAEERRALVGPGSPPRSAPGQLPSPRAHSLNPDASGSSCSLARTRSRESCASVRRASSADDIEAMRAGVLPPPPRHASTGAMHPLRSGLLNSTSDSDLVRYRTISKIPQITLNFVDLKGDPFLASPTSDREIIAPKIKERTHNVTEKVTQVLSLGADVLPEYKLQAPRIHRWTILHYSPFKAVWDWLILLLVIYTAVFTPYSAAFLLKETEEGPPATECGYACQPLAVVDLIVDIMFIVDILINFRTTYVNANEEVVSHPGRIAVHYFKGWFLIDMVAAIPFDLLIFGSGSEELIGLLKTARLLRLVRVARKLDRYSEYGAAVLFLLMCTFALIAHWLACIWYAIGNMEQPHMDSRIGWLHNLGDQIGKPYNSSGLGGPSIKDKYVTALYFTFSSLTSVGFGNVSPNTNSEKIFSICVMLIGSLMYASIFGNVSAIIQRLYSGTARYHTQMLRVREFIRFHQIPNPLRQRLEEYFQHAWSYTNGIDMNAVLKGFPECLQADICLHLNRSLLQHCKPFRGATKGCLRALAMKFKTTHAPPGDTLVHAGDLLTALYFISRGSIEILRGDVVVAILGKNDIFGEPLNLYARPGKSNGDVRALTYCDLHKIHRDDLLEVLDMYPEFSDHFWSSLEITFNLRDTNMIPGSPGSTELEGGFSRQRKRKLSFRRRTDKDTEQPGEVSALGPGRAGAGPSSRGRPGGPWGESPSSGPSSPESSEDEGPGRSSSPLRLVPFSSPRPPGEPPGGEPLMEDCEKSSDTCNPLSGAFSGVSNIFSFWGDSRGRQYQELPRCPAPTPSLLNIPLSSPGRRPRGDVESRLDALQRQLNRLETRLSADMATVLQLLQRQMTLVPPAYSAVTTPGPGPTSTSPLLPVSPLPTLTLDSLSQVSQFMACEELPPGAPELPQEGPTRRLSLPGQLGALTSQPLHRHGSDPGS

Structure (SMILES): COc1ccc2[nH]cc(CCN(C)C)c2c1 [Compound 5-MeO-DMT, 5-methoxy-N,N-dimethyltryptamine]
- Inhibition of hERG potassium ion current [1]: 77.8±7.4%
- AUC0-Tlast (Beagle dogs; [2]): 104 ng·h/mL
- AUCINF—obs (Beagle dogs; [2]): 106 ng·h/mL
- t1/2 (Beagle dogs; [2]): 18.7 min
- AUC0-Tlast (Beagle dogs; [3]): 77.9 ng·h/mL
- AUCINF—obs (Beagle dogs; [3]): 80.9 ng·h/mL
- t1/2 (Beagle dogs; [3]): 34.3 min
- AUC0-Tlast (Beagle dogs; [4]): 86.4 ng·h/mL
- AUCINF—obs (Beagle dogs; [4]): 95.9 ng·h/mL
- Cmax (Beagle dogs; [4]): 196 ng/mL
- AUC0-Tlast (Beagle dogs; [5]): 70.6 ng·h/mL
- AUCINF—obs (Beagle dogs; [5]): 77.7 ng·h/mL
- Cmax (Beagle dogs; [5]): 285 ng/mL
- AUC0-Tlast (Beagle dogs; [6]): 152 ng·h/mL
- Cmax (Beagle dogs; [6]): 300 ng/mL
- t1/2 (Beagle dogs; [6]): 35.7 min
- t1/2 (Beagle dogs; intranasal 0.8 mg/kg/day, Day 14, Female): 95.4 min
- AUC0-Tlast (Beagle dogs; [7]): 298 ng·h/mL
- AUCINF—obs (Beagle dogs; [7]): 322 ng·h/mL
- Cmax (Beagle dogs; [7]): 411 ng/mL
- t1/2 (Beagle dogs; [7]): 79.2 min
- AUC0-Tlast [SE] (Sprague Dawley rats; [8]): 53.2 [15.9] h*ng/mL
- AUCINF—obs (Sprague Dawley rats; [8]): (53.7) h*ng/mL
- Cmax [SE] (Sprague Dawley rats; [8]): 186 [98.7] ng/mL
- Tmax (Sprague Dawley rats; [8]): 9.96 min
- AUC0-Tlast [SE] (Sprague Dawley rats; [9]): 39.9 [7.35] h*ng/mL
- AUCINF—obs (Sprague Dawley rats; [9]): (40.1) h*ng/mL
- Cmax [SE] (Sprague Dawley rats; [9]): 191 [45.6] ng/mL
- AUC0-Tlast [SE] (Sprague Dawley rats; [10]): 63.8 [4.55] h*ng/mL
- AUCINF—obs (Sprague Dawley rats; [10]): (64.0) h*ng/mL
- Cmax [SE] (Sprague Dawley rats; [10]): 645 [106] ng/mL
- t1/2 (Sprague Dawley rats; [10]): 6.78 min
- AUC0-Tlast [SE] (Sprague Dawley rats; [11]): 114 [13.8] h*ng/mL
- AUCINF—obs (Sprague Dawley rats; [11]): (115) h*ng/mL
- Cmax [SE] (Sprague Dawley rats; [11]): 627 [102] ng/mL
- AUC0-Tlast [SE] (Sprague Dawley rats; [12]): 198 [15.2] h*ng/mL
- AUCINF—obs (Sprague Dawley rats; [12]): (198) h*ng/mL
- Cmax [SE] (Sprague Dawley rats; [12]): 679 [162] ng/mL
- AUC0-Tlast [SE] (Sprague Dawley rats; [13]): 420 [62.1] h*ng/mL
- AUCINF—obs (Sprague Dawley rats; [13]): (421) h*ng/mL
- Cmax [SE] (Sprague Dawley rats; [13]): 4190 [1040] ng/mL
- t1/2 (Sprague Dawley rats; [13]): 7.5 min
- AUC0-Tlast [SE] (Sprague Dawley rats; [14]): 169 [21.2] h*ng/mL
- AUCINF—obs (Sprague Dawley rats; [14]): (169) h*ng/mL
- Cmax [SE] (Sprague Dawley rats; [14]): 795 [115] ng/mL
- AUC0-Tlast [SE] (Sprague Dawley rats; [15]): 133 [57.2] h*ng/mL
- AUCINF—obs (Sprague Dawley rats; [15]): (133) h*ng/mL
- Cmax [SE] (Sprague Dawley rats; [15]): 1200 [857] ng/mL
- AUC0-Tlast [SE] (Sprague Dawley rats; [16]): 228 [49.7] h*ng/mL
- AUCINF—obs (Sprague Dawley rats; [16]): (228) h*ng/mL
- Cmax [SE] (Sprague Dawley rats; [16]): 1310 [802] ng/mL
- t1/2 (Sprague Dawley rats; [16]): 9.36 min
- AUC0-Tlast [SE] (Sprague Dawley rats; [17]): 1030 [114] h*ng/mL
- AUCINF—obs (Sprague Dawley rats; [17]): (1040) h*ng/mL
- Cmax [SE] (Sprague Dawley rats; [17]): 7010 [1010] ng/mL
- AUC0-Tlast [SE] (Sprague Dawley rats; [18]): 155 [53.8] h*ng/mL
- AUCINF—obs (Sprague Dawley rats; [18]): (156) h*ng/mL
- Cmax [SE] (Sprague Dawley rats; [18]): 870 [361] ng/mL
- t1/2 (Sprague Dawley rats; [18]): 7.8 min
- AUC0-Tlast [SE] (Sprague Dawley rats; [19]): 391 [228] h*ng/mL
- AUCINF—obs (Sprague Dawley rats; [19]): (392) h*ng/mL
- Cmax [SE] (Sprague Dawley rats; [19]): 3290 [2510] ng/mL
- t1/2 (Sprague Dawley rats; [19]): 6.96 min
